Test results: patent publication US12692221B2 (priority 2024, dated 2026)

How the values were obtained:
CCK1 (CCKA) (h) = biological target: T1, CCK1 (CCKA) (h) (Homo sapiens, UniProt P32238); assay: Radioligand binding CCK1 (CCKA) (h) (agonist radioligand), [^125I]CCK-8s, CHO cells; settings: CCK1 (CCKA) (h) (agonist radiolig.)
T1 construct: expressed in transfected cells; host or cells: CHO cells
T1 sequence (P32238 1-428): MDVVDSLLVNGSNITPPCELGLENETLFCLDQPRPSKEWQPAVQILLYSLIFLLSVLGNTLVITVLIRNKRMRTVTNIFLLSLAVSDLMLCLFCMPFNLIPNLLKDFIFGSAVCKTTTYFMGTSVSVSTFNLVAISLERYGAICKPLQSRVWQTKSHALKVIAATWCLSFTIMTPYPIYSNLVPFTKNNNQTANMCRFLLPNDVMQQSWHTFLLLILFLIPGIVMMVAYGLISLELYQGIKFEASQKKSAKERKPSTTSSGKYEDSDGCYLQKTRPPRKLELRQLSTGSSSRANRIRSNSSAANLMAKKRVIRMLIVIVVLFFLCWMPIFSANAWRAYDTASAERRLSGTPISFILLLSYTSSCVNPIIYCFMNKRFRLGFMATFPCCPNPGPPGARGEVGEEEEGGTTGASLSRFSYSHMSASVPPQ
Experimental: (§1) Methods—Binding Assays: In vitro binding assays were performed using human recombinant receptors expressed in mammalian cell lines. Receptors were expressed in either HEK-293 or CHO cells depending on the target, and assay conditions (radioligand, concentration, nonspecific competitor, temperature, and incubation time) were optimized for each receptor. All assays were conducted in triplicate, and specific binding was quantified by scintillation counting as the detection method for each listed assay.
(§2) Specific binding was expressed as a percentage of control-specific binding, and percent inhibition was calculated using the formula in Ex. 8 above. Half-maximal inhibitory concentrations (IC50) were determined by non-linear regression analysis of the inhibition curves using the Hill equation (see Ex. 8). Inhibition constants (Ki) were calculated using the Cheng-Prusoff equation (see Ex. 8). KD values used in these calculations had been previously established for each receptor under the assay conditions (see Table 6). Data analysis was performed using software developed at Cerep and validated against SigmaPlot 4.0 for Windows.

D2S (h) = biological target: T2, D2S (h) (Homo sapiens, UniProt P14416); assay: Radioligand binding D2S (h) (agonist radioligand), [^3H]7-OH-DPAT, HEK-293 cells
T2 construct: expressed in transfected cells; host or cells: HEK-293 cells
Experimental: as §1, §2

ETA (h) = biological target: T3, ETA (h) (Homo sapiens, UniProt P25101); assay: Radioligand binding ETA (h) (agonist radioligand), [^125I]endothelin-1, CHO cells
T3 construct: expressed in transfected cells; host or cells: CHO cells
T3 sequence (P25101 21-427): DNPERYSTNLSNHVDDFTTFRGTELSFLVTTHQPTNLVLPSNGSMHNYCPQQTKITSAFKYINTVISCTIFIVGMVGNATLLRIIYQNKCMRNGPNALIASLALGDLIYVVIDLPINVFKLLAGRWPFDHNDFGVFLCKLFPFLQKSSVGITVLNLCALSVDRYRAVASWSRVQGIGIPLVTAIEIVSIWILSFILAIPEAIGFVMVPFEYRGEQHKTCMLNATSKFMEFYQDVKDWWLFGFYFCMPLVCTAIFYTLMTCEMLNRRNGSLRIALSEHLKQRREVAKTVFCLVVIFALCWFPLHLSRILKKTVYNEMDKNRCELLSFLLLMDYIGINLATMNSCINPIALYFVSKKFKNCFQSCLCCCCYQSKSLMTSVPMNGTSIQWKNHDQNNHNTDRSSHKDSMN
Experimental: as §1, §2

GR (h) = biological target: T4, GR (h) (Homo sapiens, UniProt P04150); assay: Radioligand binding GR (h) (agonist radioligand), [^3H]dexamethasone, IM-9 cells
T4 construct: human endog; endogenous in cells; host or cells: IM-9 cells
T4 sequence (P04150 1-777): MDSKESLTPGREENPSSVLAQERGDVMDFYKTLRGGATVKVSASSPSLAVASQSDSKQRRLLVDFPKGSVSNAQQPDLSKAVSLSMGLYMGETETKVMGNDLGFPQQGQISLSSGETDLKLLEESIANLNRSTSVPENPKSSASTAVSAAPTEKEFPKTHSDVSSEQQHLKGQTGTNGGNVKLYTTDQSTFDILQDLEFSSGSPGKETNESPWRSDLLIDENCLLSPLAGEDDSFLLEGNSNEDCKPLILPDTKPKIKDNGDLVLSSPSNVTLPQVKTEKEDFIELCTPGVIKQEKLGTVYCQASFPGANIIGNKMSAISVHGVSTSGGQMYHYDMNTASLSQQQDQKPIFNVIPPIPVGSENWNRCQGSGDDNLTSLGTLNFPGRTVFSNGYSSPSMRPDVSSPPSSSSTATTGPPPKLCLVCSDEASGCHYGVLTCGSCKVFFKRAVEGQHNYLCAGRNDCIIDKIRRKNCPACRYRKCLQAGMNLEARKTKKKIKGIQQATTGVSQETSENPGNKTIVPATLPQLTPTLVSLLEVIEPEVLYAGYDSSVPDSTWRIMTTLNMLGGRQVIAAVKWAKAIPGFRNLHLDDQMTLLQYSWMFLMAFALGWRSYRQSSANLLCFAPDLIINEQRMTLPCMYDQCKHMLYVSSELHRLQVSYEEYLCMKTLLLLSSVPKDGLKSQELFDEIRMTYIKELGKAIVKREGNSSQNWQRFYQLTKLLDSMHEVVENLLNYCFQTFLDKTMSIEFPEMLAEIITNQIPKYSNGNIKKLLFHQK

dopamine transporter(h) = biological target: T5, dopamine transporter(h) (Homo sapiens, UniProt Q01959); assay: Radioligand binding DA transporter (h) (antagonist radioligand), [^3H]BTCP, CHO cells
T5 construct: expressed in transfected cells; host or cells: CHO cells
Experimental: as §1, §2

PDE4D2(h) = biological target: T6, PDE4D2(h) (Homo sapiens, UniProt Q08499); assay: Enzyme assay PDE4D2(h), [3H]cAMP, scintillation counting; assay type: biochemical
T6 construct: host or cells: Sf9 cells
Experimental: Methods—Enzyme and Uptake Assays: In vitro enzyme and uptake assays were conducted by Eurofins Discovery using human recombinant enzymes expressed in various mammalian and insect cell lines. Enzymatic activity was measured using appropriate substrates or tracers under conditions optimized for each target, as detailed in Table 7. Reactions were incubated at room temperature for a defined duration and terminated according to established protocols. The measured components (either enzymatic products or remaining substrate) were quantified using fluorimetry, photometry, scintillation counting, or LANCE technology, depending on the assay. Assay-specific parameters, including substrate identity, cell line source, incubation time, and detection method, are provided in Table 7.
All measurements were performed in technical replicates to ensure reproducibility and data quality.
Results were expressed both as a percentage of control-specific activity and as percent inhibition of control-specific activity. Percent activity was calculated as (measured specific activity/control specific activity)×100, and percent inhibition as 100−[(measured specific activity/control specific activity)×100], based on values obtained in the presence of test compounds. IC50 and EC50 values, along with Hill coefficients (nH), were determined by nonlinear regression analysis of inhibition or concentration-response curves generated from mean replicate values. Hill curve fitting was performed as previously described using software developed at Cerep and validated against SigmaPlot® 4.0 for Windows® (© 1997 by SPSS Inc.).

5-HT2A = 5-HT2A (Homo sapiens, UniProt P28223); assay: Calcium flux agonist assay, 293T cells; assay type: cell-based; parameters: expressed in transfected cells; host or cells: Human Embryonic Kidney (293T) cells, transient; settings: for Emax: HEK-293T, calcium flux, 5-HT2A, normalized to maximum 5-HT response
Sequence of 5-HT2A (P28223 whole entry, looked up): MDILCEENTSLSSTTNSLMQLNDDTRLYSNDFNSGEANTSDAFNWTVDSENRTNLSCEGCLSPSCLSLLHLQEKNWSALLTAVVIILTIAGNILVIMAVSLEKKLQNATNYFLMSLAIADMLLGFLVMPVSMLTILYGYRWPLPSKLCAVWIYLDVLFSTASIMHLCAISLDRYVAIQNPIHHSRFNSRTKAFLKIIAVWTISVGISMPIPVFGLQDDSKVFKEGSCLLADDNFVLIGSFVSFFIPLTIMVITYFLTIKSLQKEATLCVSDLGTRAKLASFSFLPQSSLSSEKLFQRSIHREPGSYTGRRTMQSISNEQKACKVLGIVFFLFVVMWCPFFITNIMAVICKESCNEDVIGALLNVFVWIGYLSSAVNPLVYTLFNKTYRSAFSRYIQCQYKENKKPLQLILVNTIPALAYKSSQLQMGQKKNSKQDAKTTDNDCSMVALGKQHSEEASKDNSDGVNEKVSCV

T6 sequence (Q08499 303-809 limits assumed): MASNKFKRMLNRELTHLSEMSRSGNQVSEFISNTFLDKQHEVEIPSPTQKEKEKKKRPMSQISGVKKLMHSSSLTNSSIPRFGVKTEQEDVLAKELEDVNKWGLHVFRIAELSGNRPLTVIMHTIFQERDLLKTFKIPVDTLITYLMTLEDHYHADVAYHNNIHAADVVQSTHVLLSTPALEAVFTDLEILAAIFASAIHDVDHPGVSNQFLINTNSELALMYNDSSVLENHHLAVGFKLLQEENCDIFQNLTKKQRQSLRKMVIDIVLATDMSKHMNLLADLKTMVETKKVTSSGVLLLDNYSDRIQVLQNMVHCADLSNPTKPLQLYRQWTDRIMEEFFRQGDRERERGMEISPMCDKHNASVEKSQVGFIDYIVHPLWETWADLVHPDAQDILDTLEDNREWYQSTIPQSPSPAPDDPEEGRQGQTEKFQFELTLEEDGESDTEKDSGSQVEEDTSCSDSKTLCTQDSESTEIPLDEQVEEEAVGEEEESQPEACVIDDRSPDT
T5 sequence (Q01959 whole entry): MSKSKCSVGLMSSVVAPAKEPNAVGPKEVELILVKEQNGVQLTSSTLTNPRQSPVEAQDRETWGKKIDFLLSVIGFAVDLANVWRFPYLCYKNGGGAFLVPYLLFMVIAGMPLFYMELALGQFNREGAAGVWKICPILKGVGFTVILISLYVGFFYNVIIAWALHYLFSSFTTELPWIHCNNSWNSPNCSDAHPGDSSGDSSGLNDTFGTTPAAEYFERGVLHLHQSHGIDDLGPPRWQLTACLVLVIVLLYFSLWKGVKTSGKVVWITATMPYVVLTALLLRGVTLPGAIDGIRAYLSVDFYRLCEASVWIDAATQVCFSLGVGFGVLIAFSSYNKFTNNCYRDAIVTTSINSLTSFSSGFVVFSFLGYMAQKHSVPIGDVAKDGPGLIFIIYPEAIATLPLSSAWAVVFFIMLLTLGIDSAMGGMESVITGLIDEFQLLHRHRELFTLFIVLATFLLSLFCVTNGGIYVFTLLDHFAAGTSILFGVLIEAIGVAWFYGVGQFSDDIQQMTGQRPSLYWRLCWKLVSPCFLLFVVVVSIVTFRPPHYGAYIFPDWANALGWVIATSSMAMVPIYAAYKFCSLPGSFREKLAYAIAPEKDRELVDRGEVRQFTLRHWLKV
T2 sequence (P14416 1-414 isoform P14416-2): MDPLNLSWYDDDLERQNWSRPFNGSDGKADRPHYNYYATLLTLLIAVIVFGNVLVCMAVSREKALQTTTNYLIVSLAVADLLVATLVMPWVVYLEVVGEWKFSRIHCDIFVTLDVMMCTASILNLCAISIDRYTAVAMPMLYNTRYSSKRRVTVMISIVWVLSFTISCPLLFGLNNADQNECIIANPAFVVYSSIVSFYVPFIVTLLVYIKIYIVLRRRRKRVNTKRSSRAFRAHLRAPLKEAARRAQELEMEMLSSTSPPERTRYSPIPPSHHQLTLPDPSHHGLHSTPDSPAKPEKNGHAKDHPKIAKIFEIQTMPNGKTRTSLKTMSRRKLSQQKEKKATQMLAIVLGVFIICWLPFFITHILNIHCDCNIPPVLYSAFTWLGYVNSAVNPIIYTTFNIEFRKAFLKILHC

Row | SMILES | Mean Percent Inhibition of Control Specific Binding (CCK1 (CCKA) (h)) [%] | Mean Percent Inhibition of Control Specific Binding (D2S (h)) [%] | Mean Percent Inhibition of Control Specific Binding (ETA (h)) [%] | Mean Percent Inhibition of Control Specific Binding (GR (h)) [%] | Mean Percent Inhibition of Control Specific Binding (dopamine transporter(h)) [%] | Mean Percent Inhibition of Control Specific Binding (PDE4D2(h)) [%] | EC50 (5-HT2A) [nM] | Emax (5-HT2A) [%]
1 | COCc1cc(CCN)c(O)cc1CC(C)C [2CiBu-2OH-5MM, 2-(2-aminoethyl)-5-isobutyl-4-(methoxymethyl)phenol] | −0.1 | 46.6 | −9.0 | −3.1 | 22.3 | 67.4 | 55.9 | 115
2 | COCCc1cc(CCN)c(OC)cc1Br [Compound 2CB-5ME, reference compound] | 3.3 | 83.0 | −3.5 | −0.5 | 6.2 | −5.7 |  | 
3 | COCc1cc(CCN)c(OC)cc1Br [Compound 2CB-5MM, 2-(4-bromo-2-methoxy-5-(methoxymethyl)phenyl)ethan-1-amine] | −11.5 | 89.4 | −6.5 | −7.2 | 10.7 | −0.5 | 0.68 | 114
4 | COCc1cc(CCN)c(OC)cc1CC(C)C [Compound 2CiBu-5MM, 2-[4-isobutyl-2-methoxy-5-(methoxymethyl)phenyl]ethanamine] | 12.2 | 12.9 | −1.5 | −3.9 | 7.7 | 3.0 | 42.2 | 111
